Assay results reported in US10745392B2, “Benzenesulfonamide compounds and their use as therapeutic agents” (Xenon Pharmaceuticals Inc., priority 2018, dated 2020).
Read-outs that look alike come from different tables or passages of the source.

What was measured:
[1] = biological target: NaV1.6 (Homo sapiens (Human), UniProt Q9UQD0); test: Sodium Influx Assay (Flux) NaV1.6; assay type: cell-based; details: Trex HEK293 cells, ANG2 dye, inhibition of sodium ion influx
[2] = biological target: NaV1.1 (Homo sapiens (Human), UniProt P35498); test: Sodium Influx Assay (Flux) NaV1.1; assay type: cell-based; details: Trex HEK293 cells, ANG2 dye, inhibition of sodium ion influx
[3] = biological target: T1, NaV1.5 (Homo sapiens (Human), UniProt Q14524); test: Sodium Influx Assay (Flux) NaV1.5
[4] = biological target: T1, NaV1.5
[5] = read-out: Flux NaV1.5 IC50, Trex HEK293 cells, ANG2 dye, inhibition of sodium ion influx

T1 sequence (Q14524 other isoform, or with tags, fused parts or gaps): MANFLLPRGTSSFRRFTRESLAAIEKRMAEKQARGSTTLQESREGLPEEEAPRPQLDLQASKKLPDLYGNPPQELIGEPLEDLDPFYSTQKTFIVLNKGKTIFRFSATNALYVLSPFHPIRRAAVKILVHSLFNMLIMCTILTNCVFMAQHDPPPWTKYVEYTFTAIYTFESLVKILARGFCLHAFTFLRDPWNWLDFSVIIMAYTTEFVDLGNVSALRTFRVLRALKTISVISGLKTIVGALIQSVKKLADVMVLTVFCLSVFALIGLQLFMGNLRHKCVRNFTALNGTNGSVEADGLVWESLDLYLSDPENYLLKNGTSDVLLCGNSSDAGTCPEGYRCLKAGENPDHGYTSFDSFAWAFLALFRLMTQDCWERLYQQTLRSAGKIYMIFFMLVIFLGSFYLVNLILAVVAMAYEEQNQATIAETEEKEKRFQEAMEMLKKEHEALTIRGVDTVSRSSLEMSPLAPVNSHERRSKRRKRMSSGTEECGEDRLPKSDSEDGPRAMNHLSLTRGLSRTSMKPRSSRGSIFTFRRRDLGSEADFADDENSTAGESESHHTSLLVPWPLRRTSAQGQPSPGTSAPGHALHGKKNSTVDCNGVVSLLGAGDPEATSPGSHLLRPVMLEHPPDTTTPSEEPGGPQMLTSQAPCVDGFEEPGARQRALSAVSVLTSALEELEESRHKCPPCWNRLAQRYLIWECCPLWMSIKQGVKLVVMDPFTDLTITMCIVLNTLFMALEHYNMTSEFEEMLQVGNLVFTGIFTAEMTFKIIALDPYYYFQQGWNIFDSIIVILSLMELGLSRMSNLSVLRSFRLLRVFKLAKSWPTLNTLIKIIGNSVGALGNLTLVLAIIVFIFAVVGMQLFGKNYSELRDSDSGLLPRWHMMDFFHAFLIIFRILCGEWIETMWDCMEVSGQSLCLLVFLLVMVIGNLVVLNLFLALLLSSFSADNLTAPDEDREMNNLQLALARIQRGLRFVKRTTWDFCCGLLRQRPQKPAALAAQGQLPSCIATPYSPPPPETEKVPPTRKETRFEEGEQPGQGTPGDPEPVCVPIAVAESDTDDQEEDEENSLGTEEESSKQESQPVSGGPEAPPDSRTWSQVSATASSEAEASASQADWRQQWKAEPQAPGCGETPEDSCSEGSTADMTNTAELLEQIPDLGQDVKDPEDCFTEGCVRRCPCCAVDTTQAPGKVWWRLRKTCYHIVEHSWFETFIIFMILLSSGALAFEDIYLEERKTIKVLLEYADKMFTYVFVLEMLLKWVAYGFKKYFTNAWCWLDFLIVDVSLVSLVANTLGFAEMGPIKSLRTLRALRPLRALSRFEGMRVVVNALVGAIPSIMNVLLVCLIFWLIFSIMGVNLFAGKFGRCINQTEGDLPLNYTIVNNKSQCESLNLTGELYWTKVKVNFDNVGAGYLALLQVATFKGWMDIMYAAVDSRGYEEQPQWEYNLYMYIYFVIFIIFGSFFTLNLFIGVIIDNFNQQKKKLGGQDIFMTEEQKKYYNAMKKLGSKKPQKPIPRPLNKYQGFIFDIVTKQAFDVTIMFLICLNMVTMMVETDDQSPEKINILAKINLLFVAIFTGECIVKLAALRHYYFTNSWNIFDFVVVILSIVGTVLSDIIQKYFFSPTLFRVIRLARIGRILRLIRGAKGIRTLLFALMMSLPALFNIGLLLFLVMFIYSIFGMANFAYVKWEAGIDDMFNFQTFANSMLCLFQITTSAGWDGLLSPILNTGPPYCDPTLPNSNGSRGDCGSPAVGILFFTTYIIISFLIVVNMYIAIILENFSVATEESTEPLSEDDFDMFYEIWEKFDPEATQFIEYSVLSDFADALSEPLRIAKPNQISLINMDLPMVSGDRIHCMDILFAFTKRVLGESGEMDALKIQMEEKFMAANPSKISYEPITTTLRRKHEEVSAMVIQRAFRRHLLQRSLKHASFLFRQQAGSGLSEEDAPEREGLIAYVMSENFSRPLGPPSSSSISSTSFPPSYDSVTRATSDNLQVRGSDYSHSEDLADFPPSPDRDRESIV

## C[C@@H](c1c(F)ccc(F)c1CNc1cc(F)c(S(=O)(=O)Nc2cscn2)c(F)c1)N1C2CCC1CC2 (single isomer, unassigned) [Example 15a]
[1]
  IC50: 0.53 µM
[2]
  IC50: > 30 µM
[3]
  IC50: > 30 µM

## C[C@H](c1c(F)ccc(F)c1CNc1cc(F)c(S(=O)(=O)Nc2cscn2)c(F)c1)N1C2CCC1CC2 (single isomer, unassigned) [Example 15b]
[1]
  IC50: 0.821 µM
[2]
  IC50: > 30 µM
[3]
  IC50: > 30 µM

## O=S(=O)(Nc1ccsn1)c1c(F)cc(NCc2c(F)cccc2CN2C3CCC2CC3)cc1F [Example 1, 4-((2-((7-azabicyclo[2.2.1]heptan-7-yl)methyl)-6-fluorobenzyl)amino)-2,6-difluoro-N-(isothiazol-3-yl)benzenesulfonamide]
[1]
  IC50: 0.015 µM
[2]
  IC50: 9.6 µM
[4]
  IC50: > 30 µM

## COc1ccc(F)c(CNc2cc(F)c(S(=O)(=O)Nc3cscn3)c(F)c2)c1CN(C)C(C)C [Example 2, 2,6-difluoro-4-((6-fluoro-2-((isopropyl(methyl)amino)methyl)-3-methoxybenzyl)amino)-N-(thiazol-4-yl)benzenesulfonamide]
[1]
  IC50: 0.027 µM
[2]
  IC50: 27.5 µM
[3]; [5]
  IC50: 28.3 µM

## O=S(=O)(Nc1cscn1)c1ccc(NCc2c(F)cccc2CN2C3CCC2CC3)c(F)c1F [Example 3, 4-((2-((7-azabicyclo[2.2.1]heptan-7-yl)methyl)-6-fluorobenzyl)amino)-2,3-difluoro-N-(thiazol-4-yl)benzenesulfonamide]
[1]
  IC50: 0.142 µM
[2]
  IC50: > 30 µM
[4]
  IC50: > 30 µM

## Cc1c(NCc2c(F)cccc2CN2C3CCC2CC3)cc(F)c(S(=O)(=O)Nc2ccon2)c1F [Example 4, 4-((2-((7-azabicyclo[2.2.1]heptan-7-yl)methyl)-6-fluorobenzyl)amino)-2,6-difluoro-N-(isoxazol-3-yl)-3-methylbenzenesulfonamide]
[1]
  IC50: 0.047 µM
[2]
  IC50: 17 µM
[4]
  IC50: > 30 µM

## Cc1c(NCc2c(F)cccc2CN2C3CCC2CC3)ccc(S(=O)(=O)Nc2ccon2)c1F [Example 5, 4-((2-((7-azabicyclo[2.2.1]heptan-7-yl)methyl)-6-fluorobenzyl)amino)-2-fluoro-N-(isoxazol-3-yl)-3-methylbenzenesulfonamide 2,2,2-trifluoroacetate]
[1]
  IC50: 0.617 µM
[2]
  IC50: > 30 µM
[4]
  IC50: > 30 µM

## O=S(=O)(Nc1cscn1)c1ccc(NCc2c(F)cccc2CN2C3CCC2CC3)c(Cl)c1F [Example 6, 4-((2-((7-azabicyclo[2.2.1]heptan-7-yl)methyl)-6-fluorobenzyl)amino)-3-chloro-2-fluoro-N-(thiazol-4-yl)benzenesulfonamide 2,2,2-trifluoroacetate]
[1]
  IC50: 0.095 µM
[2]
  IC50: 5.23 µM
[4]
  IC50: 15.3 µM

## Cc1c(NCc2c(F)cccc2CN2C3CCC2CC3)ccc(S(=O)(=O)Nc2cscn2)c1F [Example 7, 4-((2-((7-azabicyclo[2.2.1]heptan-7-yl)methyl)-6-fluorobenzyl)amino)-2-fluoro-3-methyl-N-(thiazol-4-yl)benzenesulfonamide 2,2,2-trifluoroacetate]
[1]
  IC50: 0.181 µM
[2]
  IC50: 7.44 µM
[4]
  IC50: 21.3 µM

## CC(C)Oc1ccc(F)c(CNc2cc(F)c(S(=O)(=O)Nc3cscn3)c(F)c2)c1CN(C)C(C)C [Example 8, 2,6-difluoro-4-((6-fluoro-3-isopropoxy-2-((isopropyl(methyl)amino)methyl)benzyl)amino)-N-(thiazol-4-yl)benzenesulfonamide]
[1]
  IC50: 0.026 µM
[2]
  IC50: 28 µM
[3]; [5]
  IC50: 11.1 µM

## O=S(=O)(Nc1cscn1)c1c(F)cc(NCc2c(F)cccc2CN2C3CCC2CC3)cc1F [Example 9, 4-((2-((7-azabicyclo[2.2.1]heptan-7-yl)methyl)-6-fluorobenzyl)amino)-2,6-difluoro-N-(thiazol-4-yl)benzenesulfonamide 2,2,2-trifluoroacetate]
[1]
  IC50: 0.026 µM
[2]
  IC50: 7.84 µM
[4]
  IC50: 20.4 µM

## O=S(=O)(Nc1cscn1)c1c(F)cc(NCc2c(F)ccc(F)c2CN2C3CCC2CC3)cc1F [Example 10, 4-((2-((7-azabicyclo[2.2.1]heptan-7-yl)methyl)-3,6-difluorobenzyl)amino)-2,6-difluoro-N-(thiazol-4-yl)benzenesulfonamide]
[1]
  IC50: 0.028 µM
[2]
  IC50: 7.93 µM
[4]
  IC50: 25.4 µM

## COc1ccc(F)c(CNc2cc(F)c(S(=O)(=O)Nc3cscn3)c(F)c2)c1CN1C2CCC1CC2 [Example 11, 4-((2-((7-azabicyclo[2.2.1]heptan-7-yl)methyl)-6-fluoro-3-methoxybenzyl)amino)-2,6-difluoro-N-(thiazol-4-yl)benzenesulfonamide 2,2,2-trifluoroacetate]
[1]
  IC50: 0.002 µM
[2]
  IC50: 5.91 µM
[4]
  IC50: 27.5 µM

## COc1ccc(F)c(CNc2ccc(S(=O)(=O)Nc3cscn3)c(F)c2F)c1CN1C2CCC1CC2 [Example 12, 4-((2-((7-azabicyclo[2.2.1]heptan-7-yl)methyl)-6-fluoro-3-methoxybenzyl)amino)-2,3-difluoro-N-(thiazol-4-yl)benzenesulfonamide 2,2,2-trifluoroacetate]
[1]
  IC50: 0.054 µM
[2]
  IC50: > 30 µM
[4]
  IC50: > 30 µM

## O=S(=O)(Nc1ccsn1)c1ccc(NCc2c(F)cccc2CN2C3CCC2CC3)c(F)c1F [Example 13, 4-((2-((7-azabicyclo[2.2.1]heptan-7-yl)methyl)-6-fluorobenzyl)amino)-2,3-difluoro-N-(isothiazol-3-yl)benzenesulfonamide 2,2,2-trifluoroacetate]
[1]
  IC50: 0.27 µM
[2]
  IC50: 23.7 µM
[4]
  IC50: > 30 µM

## CC(c1c(F)ccc(F)c1CNc1cc(F)c(S(=O)(=O)Nc2cscn2)c(F)c1)N1C2CCC1CC2 (stereo not drawn) [Example 14, 4-((2-(1-(7-azabicyclo[2.2.1]heptan-7-yl)ethyl)-3,6-difluorobenzyl)amino)-2,6-difluoro-N-(thiazol-4-yl)benzenesulfonamide 2,2,2-trifluoroacetate]
[1]
  IC50: 0.653 µM
[2]
  IC50: > 30 µM
[4]
  IC50: 12.8 µM

## COc1ccc(F)c(CNc2ccc(S(=O)(=O)Nc3cscn3)c(F)c2F)c1CN(C)C(C)C [Example 16, 2,3-difluoro-4-((6-fluoro-2-((isopropyl(methyl)amino)methyl)-3-methoxybenzyl)amino)-N-(thiazol-4-yl)benzenesulfonamide]
[1]
  IC50: 0.031 µM
[2]
  IC50: > 30 µM
[3]; [5]
  IC50: 9.46 µM

## COc1ccc(F)c(CNc2cc(F)c(S(=O)(=O)Nc3cscn3)cc2Cl)c1CN(C)C(C)C [Example 17, 5-chloro-2-fluoro-4-((6-fluoro-2-((isopropyl(methyl)amino)methyl)-3-methoxybenzyl)amino)-N-(thiazol-4-yl)benzenesulfonamide 2,2,2-trifluoroacetate]
[1]
  IC50: 0.012 µM
[2]
  IC50: > 30 µM
[3]; [5]
  IC50: 16.3 µM

## COc1ccc(F)c(CNc2cc(F)c(S(=O)(=O)Nc3cscn3)cc2C)c1CN(C)C(C)C [Example 18, 2-fluoro-4-((6-fluoro-2-((isopropyl(methyl)amino)methyl)-3-methoxybenzyl)amino)-5-methyl-N-(thiazol-4-yl)benzenesulfonamide 2,2,2-trifluoroacetate]
[1]
  IC50: 0.016 µM
[2]
  IC50: > 30 µM
[3]; [5]
  IC50: 11.8 µM
